Test results published in ChEMBL document CHEMBL4145484 (Eur J Med Chem, 2018).

Columns and labels:
[1] = target: T1, Amine oxidase [flavin-containing] B (Homo sapiens, UniProt P27338); assay: Inhibition of recombinant human MAO-B using p-tyramine as substrate preincubated for 15 mins followed by substrate addition measured over 15 mins by Amplex red reagent-based fluorimetric method
T1 sequence (P27338 whole entry): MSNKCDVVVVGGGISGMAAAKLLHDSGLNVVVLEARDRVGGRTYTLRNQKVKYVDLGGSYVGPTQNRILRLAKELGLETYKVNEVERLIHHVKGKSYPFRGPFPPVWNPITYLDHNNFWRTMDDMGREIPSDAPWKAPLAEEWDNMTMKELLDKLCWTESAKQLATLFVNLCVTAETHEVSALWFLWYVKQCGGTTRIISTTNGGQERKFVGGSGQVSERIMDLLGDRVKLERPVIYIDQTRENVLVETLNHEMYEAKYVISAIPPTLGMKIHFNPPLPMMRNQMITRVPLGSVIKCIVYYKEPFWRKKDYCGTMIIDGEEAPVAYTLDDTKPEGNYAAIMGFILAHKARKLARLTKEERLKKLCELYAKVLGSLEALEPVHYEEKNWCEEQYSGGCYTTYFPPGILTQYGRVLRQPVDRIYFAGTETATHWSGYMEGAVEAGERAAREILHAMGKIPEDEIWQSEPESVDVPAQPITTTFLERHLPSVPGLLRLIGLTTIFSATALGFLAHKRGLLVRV

[2] = organism: Homo sapiens; assay: Selectivity index, ratio of IC50 for recombinant human MAO-A to IC50 for recombinant human MAO-B
[3] = target: T2, Amine oxidase [flavin-containing] A (Homo sapiens, UniProt P21397); assay: Inhibition of recombinant human MAO-A using p-tyramine as substrate preincubated for 15 mins followed by substrate addition measured over 15 mins by Amplex red reagent-based fluorimetric method
T2 sequence (P21397 whole entry): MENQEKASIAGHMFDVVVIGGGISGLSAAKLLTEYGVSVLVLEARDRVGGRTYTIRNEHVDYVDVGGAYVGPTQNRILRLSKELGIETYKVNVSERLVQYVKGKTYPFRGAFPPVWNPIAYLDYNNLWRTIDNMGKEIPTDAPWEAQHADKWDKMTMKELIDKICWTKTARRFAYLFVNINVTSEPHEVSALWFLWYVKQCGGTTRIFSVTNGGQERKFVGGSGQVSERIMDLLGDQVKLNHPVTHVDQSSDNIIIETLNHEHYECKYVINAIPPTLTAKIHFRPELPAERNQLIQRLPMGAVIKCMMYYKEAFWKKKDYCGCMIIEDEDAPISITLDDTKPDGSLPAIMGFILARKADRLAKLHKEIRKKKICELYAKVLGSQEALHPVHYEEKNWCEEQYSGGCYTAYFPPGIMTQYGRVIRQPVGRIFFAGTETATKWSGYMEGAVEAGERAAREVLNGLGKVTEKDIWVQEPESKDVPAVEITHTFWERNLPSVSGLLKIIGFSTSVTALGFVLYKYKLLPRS

Structure (SMILES)	IC50 [1] [µM]	Ratio IC50 [2]	IC50 [3] [µM]
C#CCNC1CCc2c(OCc3ccc(F)cc3)cccc21 (centres undefined)	1.87	4.17	7.8
C#CCNC1CCc2c(OCCCOc3ccc(CC)cc3)cccc21 (centres undefined)	10.5	2.99	31.4
C#CCNC1CCc2c(OCCc3cccc(NC(=O)c4ccc(Cl)cc4)c3)cccc21 (centres undefined)	0.02	466	9.33
C#CCNC1CCc2c(OCCOc3cccc(NC(C)=O)c3)cccc21 (centres undefined)	5.52	1.5	8.3
C#CCNC1CCc2c(OCCOc3cccc(NC(=O)CCl)c3)cccc21 (centres undefined)	6.91	> 8.68	> 60
C#CCNC1CCc2c(OCCCOc3ccc(C(C)C)cc3)cccc21 (centres undefined)	5.38	7.93	42.7
C#CCNC1CCc2c(OCc3ccc(C)cc3)cccc21 (centres undefined)	1.09	3.97	4.33
C#CCNC1CCc2c(OCc3ccc4ccccc4c3)cccc21 (centres undefined)	6.21	> 9.66	> 60
C#CCNC1CCc2c(OCc3ccc(C(F)(F)F)cc3)cccc21 (centres undefined)	1.39	> 43.7	> 60
C#CCNC1CCc2c(OCc3ccc(F)c(F)c3)cccc21 (centres undefined)	1.41	5.12	7.22
C#CCNC1CCc2c(OCCCOc3cccc4ccccc34)cccc21 (centres undefined)	> 60		> 60
C#CCNC1CCc2c(OCCCOc3cc(C)c(Cl)c(C)c3)cccc21 (centres undefined)	6.91	> 8.68	> 60
C#CCNC1CCc2c(OCCOc3cccc4ccccc34)cccc21 (centres undefined)	3.39	> 17.7	> 60
C#CCNC1CCc2c(OCCCOc3cccc(I)c3)cccc21 (centres undefined)	18	> 3.33	> 60

Continued, values first:

IC50 [1] [µM]	Ratio IC50 [2]	IC50 [3] [µM]	Structure (SMILES)
4.57	3.08	14.1	C#CCNC1CCc2c(OCCOc3ccccc3)cccc21 (centres undefined)
0.33	21.2	7	C#CCNC1CCc2c(OCc3cccc(Cl)c3)cccc21 (centres undefined)
1.97	7.84	15.4	C#CCNC1CCc2c(OCc3ccccc3)cccc21 (centres undefined)
10.2	> 5.87	> 60	C#CCNC1CCc2c(OCCCOc3ccccc3)cccc21 (centres undefined)
2.51	4.07	10.2	C#CCNC1CCc2c(OCCc3ccc(Cl)cc3)cccc21 (centres undefined)
5.87	> 10.2	> 60	C#CCNC1CCc2c(OCCc3cccc(Cl)c3)cccc21 (centres undefined)
0.55	20.4	11.2	C#CCNC1CCc2c(OCc3cccc(C)c3)cccc21 (centres undefined)
3.87	2.35	9.1	C#CCNC1CCc2c(OCCc3ccccc3)cccc21 (centres undefined)
0.28	18.6	5.2	C#CCNC1CCc2c(OCc3cccc(F)c3)cccc21 (centres undefined)
0.65	14.7	9.55	C#CCNC1CCc2c(OCc3cccc(Br)c3)cccc21 (centres undefined)
6.24	> 9.62	> 60	C#CCNC1CCc2c(SCc3ccccc3)cccc21 (centres undefined)
